What was measured:
[1] = Body weight change in DIO mice treated for 5 weeks; type: in vivo; set-up: key to Significance of Body Weight Change: ns: not significant; *: p < 0.05; **: p < 0.005; ***: p < 0.001; ****: p < 0.0001; conditions: subcutaneous; for Significance of Body Weight Change: male C57Bl/6 DIO mice, 2-way ANOVA with Dunnett's analysis
Experimental: (§1) Male C57Bl/6 DIO mice, 19-20 weeks old (13-14 weeks on high fat diet) at beginning of dosing, were placed into the following treatment groups: Group A—Vehicle, in which the animals were administered vehicle weekly; Group B—Dulaglutide, in which the animals were administered 0.1 mg/kg (2 nmol/kg) of dulaglutide twice per week; Group C—GIPR Ab, in which the animals were administered 5 mg/kg (33 nmol/kg) of antibody 2.63.1 (having a light and heavy chain sequence of SEQ ID NOs: 105 and 106, respectively) weekly and vehicle weekly (the latter being on the alternate dulaglutide dosing day); Group D—GDF15, in which the animals were administered 0.125 mg/kg (1 nmol/kg) of FcΔ10(−)-(G4S)4-GDF15 (SEQ ID NO: 39) (along with its heterodimerization partner, FcΔ10(+,K) (SEQ ID NO: 32)) weekly and vehicle weekly (the latter on the alternate dulaglutide dosing day); Group E—GDF15+Dulaglutide, in which the animals were administered 0.125 mg/kg (1 nmol/kg) of FcΔ10(−)-(G4S)4-GDF15) (along with its heterodimerization partner, FcΔ10(+,K)) weekly and 0.1 mg/kg (2 nmol/kg) of dulaglutide twice per week; Group F—GDF15+GIPR Ab, in which the animals were administered 0.125 mg/kg (1 nmol/kg) of FcΔ10(−)-(G4S)4-GDF15 (along with its heterodimerization partner, FcΔ10(+,K)) weekly and 5 mg/kg (33 nmol/kg) of antibody 2.63.1 weekly. The animals were dosed for 5 weeks with through subcutaneous injection.
Body weight was measured twice per week.

[2] = Food intake measured three consecutive days per week; type: in vivo; set-up: key: ns: not significant; *: p < 0.05; **: p < 0.005; ***: p < 0.001; ****: p < 0.0001; conditions: male C57Bl/6 DIO mice, 2-way ANOVA with Dunnett's analysis
Experimental: as §1

dulaglutide [reference compound]
Significance of Body Weight Change ([1]; D0): ns
Significance of Body Weight Change ([1]; D3): ns
Significance of Body Weight Change ([1]; D7): ns
Significance of Body Weight Change ([1]; D10): ** (p < 0.005)
Significance of Body Weight Change ([1]; D14): ** (p < 0.005)
Significance of Body Weight Change ([1]; D17): **** (p < 0.0001)
Significance of Body Weight Change ([1]; D21): *** (p < 0.001)
Significance of Body Weight Change ([1]; D31): *** (p < 0.001)
Significance of Body Weight Change ([1]; D35): *** (p < 0.001)
Significance of Body Weight Change ([1]; D-4): ns
change in body weight ([1]; five weeks after treatment, DIO mice): −1.96%
Significance of Food Intake Assay ([2]; D2): ns
Significance of Food Intake Assay ([2]; D8): ns
Significance of Food Intake Assay ([2]; D9): ns
Significance of Food Intake Assay ([2]; D10): ns
Significance of Food Intake Assay ([2]; D15): ns
Significance of Food Intake Assay ([2]; D16): ns
Significance of Food Intake Assay ([2]; D17): * (p < 0.05)
Significance of Food Intake Assay ([2]; D22): **** (p < 0.0001)
Significance of Food Intake Assay ([2]; D23): ns
Significance of Food Intake Assay ([2]; D24): ns
Significance of Food Intake Assay ([2]; D29): ns
Significance of Food Intake Assay ([2]; D30): ns
Significance of Food Intake Assay ([2]; D31): ns
